# Measured values from patent publication US20020051978A1, “Methods and compositions for the identification, assessment, prevention and therapy of human cancers” (priority 2000, published 2002).
# Like-named read-outs stand apart in the source and are kept apart here.
# Experiments:
# [1] = tested on: 60 cancer cell lines (NCI 60 cancer cell line series); assay: NCI-DTP in vitro cancer screen, sulforhodamine B (SRB) growth inhibition, 48 hour exposure; type: cell-based, human; set-up: key to sensitivity class Ovarian OVCAR-8 CL6005 / sensitivity class Ovarian SK-OV-3 CL6011 / sensitivity class Prostate DU-145 CL11003 / sensitivity class NSCLC NCI-H522 CL1003 / sensitivity class Ovarian IGROV1 CL6010 / sensitivity class Ovarian OVCAR-4 CL6002 / sensitivity class Prostate PC-3(I) CL11001 / sensitivity class Renal A498 CL9013 / sensitivity class Renal SN12C CL9008: sensitivity class: 1 = Low, 2 = Medium, 3 = High
# Outline: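 Values come from the NCI-DTP screen database: -log GI50, the concentration giving 50% growth inhibition, derived from SRB cell-mass dose-response curves. Each line seeded at its own density, treated day 1 at five ten-fold-spaced doses in duplicate wells, stained after 48 h.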
# [2] = tested on: 60 cancer cell lines (NCI 60 cancer cell line series); settings: cited from earlier work
structure (smiles),measurement,setting,value
COc1cccc2c1C(=O)c1c(O)c3c(c(O)c1C2=O)C[C@@](O)(C(=O)CO)C[C@@H]3O[C@H]1C[C@H](N)[C@H](O)[C@H](C)O1 [Adriamycin],"classification of cell line as Low(1), Medium(2) or High(3) sensitivity to compound",[1]; CNS SF-539 CL12016,2
same,"classification of cell line as Low(1), Medium(2) or High(3) sensitivity to compound",[1]; CNS SNB-19 (CL12002),2
same,"classification of cell line as Low(1), Medium(2) or High(3) sensitivity to compound",[1]; CNS SNB-75(I) CL12005,2
same,"classification of cell line as Low(1), Medium(2) or High(3) sensitivity to compound",[1]; CNS U251(I) CL12009,2
same,"classification of cell line as Low(1), Medium(2) or High(3) sensitivity to compound",[1]; Colon COLO-250 CL4010,2
same,"classification of cell line as Low(1), Medium(2) or High(3) sensitivity to compound",[1]; Colon HCC-2998 (CL4002),2
same,"classification of cell line as Low(1), Medium(2) or High(3) sensitivity to compound",[1]; Colon HCT-15 CL4015,1
same,"classification of cell line as Low(1), Medium(2) or High(3) sensitivity to compound",[1]; Colon HCT-116 (CL4003),2
same,"classification of cell line as Low(1), Medium(2) or High(3) sensitivity to compound",[1]; Colon HT29(I) CL4001,2
same,"classification of cell line as Low(1), Medium(2) or High(3) sensitivity to compound",[1]; Colon KM12 (CL4017),2
same,"classification of cell line as Low(1), Medium(2) or High(3) sensitivity to compound",[1]; Colon SW-620 (CL4009),2
same,"classification of cell line as Low(1), Medium(2) or High(3) sensitivity to compound",[1]; Leukemia CCRF-CEM(I) (CL7003),3
same,"classification of cell line as Low(1), Medium(2) or High(3) sensitivity to compound",[1]; Leukemia HL-60(I) (CL7008),2
same,"classification of cell line as Low(1), Medium(2) or High(3) sensitivity to compound",[1]; Leukemia K562(I) CL7005,2
same,"classification of cell line as Low(1), Medium(2) or High(3) sensitivity to compound",[1]; Leukemia MOLT-4 (CL7006),3
same,"classification of cell line as Low(1), Medium(2) or High(3) sensitivity to compound",[1]; Leukemia RPMI-8226(I) (CL7010),2
same,"classification of cell line as Low(1), Medium(2) or High(3) sensitivity to compound",[1]; Leukemia SR CL7019,3
same,"classification of cell line as Low(1), Medium(2) or High(3) sensitivity to compound",[1]; Melanoma LOX IMVI CL10001,2
same,"classification of cell line as Low(1), Medium(2) or High(3) sensitivity to compound",[1]; Melanoma M14 (CL10014),2
same,"classification of cell line as Low(1), Medium(2) or High(3) sensitivity to compound",[1]; Melanoma MALME-3M CL10002,2
same,sensitivity class NSCLC NCI-H23(I) CL1001,"[1]; cell line NSCLC NCI-H23(I), CL1001",2
same,sensitivity class NSCLC NCI-H332M CL1017,"[1]; cell line NSCLC NCI-H332M, CL1017",1
same,sensitivity class NSCLC NCI-H460 CL1021,"[1]; cell line NSCLC NCI-H460, CL1021",3
same,sensitivity class NSCLC NCI-H522 CL1003,"[1]; cell line NSCLC NCI-H522, CL1003",2
same,sensitivity class Ovarian IGROV1 CL6010,"[1]; cell line Ovarian IGROV1, CL6010",2
same,sensitivity class Ovarian OVCAR-3 CL6001,"[1]; cell line Ovarian OVCAR-3, CL6001",2
same,sensitivity class Ovarian OVCAR-4 CL6002,"[1]; cell line Ovarian OVCAR-4, CL6002",1
same,sensitivity class Ovarian OVCAR-5 CL6003,"[1]; cell line Ovarian OVCAR-5, CL6003",1
same,sensitivity class Ovarian OVCAR-8 CL6005,"[1]; cell line Ovarian OVCAR-8, CL6005",2
same,sensitivity class Ovarian SK-OV-3 CL6011,"[1]; cell line Ovarian SK-OV-3, CL6011",2
same,sensitivity class Prostate DU-145 CL11003,"[1]; cell line Prostate DU-145, CL11003",2
same,sensitivity class Prostate PC-3(I) CL11001,"[1]; cell line Prostate PC-3(I), CL11001",2
same,sensitivity class Renal 786-O CL9018,"[1]; cell line Renal 786-O, CL9018",2
same,sensitivity class Renal A498 CL9013,"[1]; cell line Renal A498, CL9013",2
same,sensitivity class Renal ACHN CL9023,"[1]; cell line Renal ACHN, CL9023",2
same,sensitivity class Renal CAKI-1 CL9015,"[1]; cell line Renal CAKI-1, CL9015",2
same,sensitivity class Renal RXF-393 CL9016,"[1]; cell line Renal RXF-393, CL9016",2
same,sensitivity class Renal SN12C CL9008,"[1]; cell line Renal SN12C, CL9008",2
same,sensitivity class Renal TK10 CL9024,"[1]; cell line Renal TK10, CL9024",2
same,sensitivity class Renal UO-31 CL9004,"[1]; cell line Renal UO-31, CL9004",1
same,-Log (GI50),[2]; Breast BT-549 (CL5013),6.5
same,-Log (GI50),[2]; Breast HS-578T CL5006,6.7
same,-Log (GI50),[2]; Breast MCF7(I) (CL5001),7.8
same,-Log (GI50),[2]; Breast MCF7/ADRr (CL5002),4.8
same,-Log (GI50),[2]; Breast MDA-MB-231 CL5005,6.4
same,-Log (GI50),[2]; Breast MDA-MB-435 (CL5011),6.5
same,-Log (GI50),[2]; Breast MDA-N CL5012,6.5
same,-Log (GI50),[2]; Breast T-47D (CL5014),7.0
same,-Log (GI50),[2]; CNS SF-268 CL12014,7.0
same,-Log (GI50),[2]; CNS SF-295 CL12015,7.0
same,-Log (GI50),[2]; CNS SF-539 CL12016,7.2
same,-Log (GI50),[2]; CNS SNB-19 (CL12002),7.3
same,-Log (GI50),[2]; CNS SNB-75(I) CL12005,7.0
same,-Log (GI50),[2]; CNS U251(I) CL12009,7.3
same,-Log (GI50),[2]; Colon COLO-250 CL4010,6.7
same,-Log (GI50),[2]; Colon HCC-2998 (CL4002),6.7
same,-Log (GI50),[2]; Colon HCT-15 CL4015,5.9
same,-Log (GI50),[2]; Colon HCT-116 (CL4003),7.1
same,-Log (GI50),[2]; Colon HT29(I) CL4001,6.7
same,-Log (GI50),[2]; Colon KM12 (CL4017),6.5
same,-Log (GI50),[2]; Colon SW-620 (CL4009),7.1
same,-Log (GI50),[2]; Leukemia CCRF-CEM(I) (CL7003),7.5
same,-Log (GI50),[2]; Leukemia HL-60(I) (CL7008),7.3
same,-Log (GI50),[2]; Leukemia K562(I) CL7005,7.0
same,-Log (GI50),[2]; Leukemia MOLT-4 (CL7006),8.0
same,-Log (GI50),[2]; Leukemia RPMI-8226(I) (CL7010),7.3
same,-Log (GI50),[2]; Leukemia SR CL7019,7.8
same,-Log (GI50),[2]; Melanoma LOX IMVI CL10001,7.3
same,-Log (GI50),[2]; Melanoma M14 (CL10014),6.6
same,-Log (GI50),[2]; Melanoma MALME-3M CL10002,7.1
same,-Log (GI50),[2]; NCSLC NCI-H522 CL1003,7.2
same,-Log (GI50),[2]; NSCLC NCI-H23(I) CL1001,6.9
same,-Log (GI50),[2]; NSCLC NCI-H332M CL1017,6.3
same,-Log (GI50),[2]; NSCLC NCI-H460 CL1021,8.2
same,-Log (GI50),[2]; Ovarian IGROV1 CL6010,6.9
same,-Log (GI50),[2]; Ovarian OVCAR-3 CL6001,6.3
same,-Log (GI50),[2]; Ovarian OVCAR-4 CL6002,6.1
same,-Log (GI50),[2]; Ovarian OVCAR-5 CL6003,6.2
same,-Log (GI50),[2]; Ovarian OVCAR-8 CL6005,6.8
same,-Log (GI50),[2]; Ovarian SK-OV-3 CL6011,6.5
same,-Log (GI50),[2]; Prostate DU-145 CL11003,6.8
same,-Log (GI50),[2]; Prostate PC-3(I) CL11001,6.6
same,-Log (GI50),[2]; Renal 786-O CL9018,7.3
same,-Log (GI50),[2]; Renal A498 CL9013,6.9
same,-Log (GI50),[2]; Renal ACHN CL9023,7.2
same,-Log (GI50),[2]; Renal CAKI-1 CL9015,6.8
same,-Log (GI50),[2]; Renal RXF-393 CL9016,6.7
same,-Log (GI50),[2]; Renal SN12C CL9008,7.0
same,-Log (GI50),[2]; Renal TK10 CL9024,6.3
same,-Log (GI50),[2]; Renal UO-31 CL9004,6.1
